Results published in patent publication US20240366624A1, “METHODS AND COMPOSITIONS FOR TREATING THROMBOTIC DISEASE” (Washington University, priority 2023, published 2024).

Key:
[1] = test system: WT mice; experiment: FeCl3-induced carotid arterial thrombosis; type: in vivo, mouse
Method: FIG. […]) is an exemplary embodiment of B12-5 having an antithrombotic effect without prolonging tail bleeding times in mice in accordance with the present disclosure. FIG. […]): Ex vivo effects of B12-5. Wild type (WT; […] One hour later, blood was drawn, followed by isolating platelets. P-selectin exposure (FIG. 19A) and αIIbβ3 integrin activation (FIG. 19B) were assessed in flow cytometry. FIG. 19C: Platelet aggregation was measured after treatment with 0.025 U/mL thrombin. The data represent the mean±SD (n=4). FIG. 19D: The plasma levels of B12-5 were analyzed by liquid chromatography-tandem mass spectrometry (LC-MS/MS) after intravenous injection of the compound (5 μg/g BW) into WT mice and quantified by comparison with a standard curve of B12-5 (mean±SD, n=3). FIG. 19E and FIG. 19F: After laser-induced cremaster arteriolar injury, intravital microscopy was conducted with WT mice pretreated with intravenous injection of saline, eptifibatide (5 μg/g BW), vehicle, or B12-5 (5 μg/g BW). The median integrated fluorescence intensities of anti-CD42c (F platelet) and anti-fibrin (F fibrin) antibodies (n=37-42 arterioles in 6 mice per group). Quantification of the antibody signal at a different time point after laser injury. FIG. 19G: Comparison of B12-5 (5 μg/g BW) with eptifibatide (5 μg/g BW) and their respective controls in inhibiting FeCl3-induced carotid artery thrombosis in WT mice. FIG. 19H and FIG. 19I: WT mice were treated with intravenous injection of vehicle control, eptifibatide (5 μg/g BW), or B12-5 (5 μg/g BW). Thirty minutes later, tail bleeding times and Hb contents were measured after amputation of the tail tip. […] Twenty-three hours later, neurological deficits were assessed by the Bederson score and grip test, and infarct volume was measured as described in Methods. […] Twenty-three hours later, the neurological deficit and infarct volume were measured as described above. […] P values determined by unpaired Student t test (FIG. […]), FIG. 19K, and FIG. 19O) or Mann-Whitney U test (FIG. 19(E-1), FIG. 19L, FIG. 19M, FIG. 19P, and FIG. 19Q). […]

[2] = test system: WT (C57BL/6) mice; experiment: Ex vivo platelet activation and aggregation after intravenous injection; type: in vivo, mouse
Method: FIG. 19(A-Q) is an exemplary embodiment of B12-5 having an antithrombotic effect without prolonging tail bleeding times in mice in accordance with the present disclosure. FIG. 19(A-C): Ex vivo effects of B12-5. […] One hour later, blood was drawn, followed by isolating platelets. P-selectin exposure (FIG. 19A) and αIIbβ3 integrin activation (FIG. 19B) were assessed in flow cytometry. FIG. 19C: Platelet aggregation was measured after treatment with 0.025 U/mL thrombin. The data represent the mean±SD (n=4). FIG. 19D: The plasma levels of B12-5 were analyzed by liquid chromatography-tandem mass spectrometry (LC-MS/MS) after intravenous injection of the compound (5 μg/g BW) into WT mice and quantified by comparison with a standard curve of B12-5 (mean±SD, n=3). […] The median integrated fluorescence intensities of anti-CD42c (F platelet) and anti-fibrin (F fibrin) antibodies (n=37-42 arterioles in 6 mice per group). Quantification of the antibody signal at a different time point after laser injury. […] Thirty minutes later, tail bleeding times and Hb contents were measured after amputation of the tail tip. […] Twenty-three hours later, neurological deficits were assessed by the Bederson score and grip test, and infarct volume was measured as described in Methods. […] Twenty-three hours later, the neurological deficit and infarct volume were measured as described above. […]

SMILES: O=C(CSc1nc(O)cc(O)n1)N1c2ccccc2Sc2ccccc21 [B12-5]
- time to occlusion ([1]; 5 μg/g BW, vs vehicle control): significantly prolonged
- platelet thrombus formation ([1]; iv 5 microg/g mouse): significantly reduced
- inhibitory effects ex vivo ([2]; 2 μg/g BW, data not shown): did not show inhibitory effects
- P-selectin exposure, αIIbβ3 integrin activation, and aggregation ex vivo ([2]; iv 5 μg/g BW, blood drawn 1 hour later): significantly inhibited
